The values that follow come from US12421193B2, “GPR52 modulators and methods of use” (Neurocrine Biosciences, Inc., priority 2020, dated 2025).

SMILES strings stand for the structures. Counter-ions that a name gives are not always drawn.

The target in the experiment is T1, recombinant human GPR52 (Homo sapiens, UniProt Q9Y2T5).
T1 construct: expressed in transfected cells
Briefly: TR-FRET cAMP assay (LANCE Ultra cAMP Kit), GPR52 activity. It counts as cell-based. The note with it: Flp-In-CHO cells stably expressing recombinant human GPR52; cAMP production, normalized to the positive control. Here is the method:
TR-FRET cAMP assays were performed using commercially available assay kits (LANCE™ Ultra cAMP Kit). Controls and compounds were solubilized in DMSO using ½ log dilution to generate duplicate 10-point dose response curves in 384-well polypropylene compound plates. Sixty nanoliters of the diluted compounds were transferred into 384-well NBS assay plates and further diluted to 1× with the addition of 2000 cells per well. Flp-In™—CHO cells that stably express recombinant human GPR52.
Cells were harvested with cell stripper and resuspended in Stimulation Buffer (5 mM HEPES, 0.1% bovine serum albumin (BSA), 0.5 mM IBMX, pH 7.4). After thirty minutes incubation at room temperature, detection reagents were added to each well. Plates were then incubated for 30 minutes at room temperature. The LANCE™ Ultra cAMP assay uses time-resolved fluorescence resonance energy transfer (TR-FRET) to detect cAMVP production; this signal was quantified using a Pherastar multi-mode plate reader.
Dose-response curves were generated from the fluorescence counts normalized to the positive control. E EC50 values were obtained using a nonlinear regression curve-fitting program.
For orientation: Time-resolved FRET reads energy transfer from a long-lived donor to a nearby acceptor.

T1 sequence (Q9Y2T5 whole entry): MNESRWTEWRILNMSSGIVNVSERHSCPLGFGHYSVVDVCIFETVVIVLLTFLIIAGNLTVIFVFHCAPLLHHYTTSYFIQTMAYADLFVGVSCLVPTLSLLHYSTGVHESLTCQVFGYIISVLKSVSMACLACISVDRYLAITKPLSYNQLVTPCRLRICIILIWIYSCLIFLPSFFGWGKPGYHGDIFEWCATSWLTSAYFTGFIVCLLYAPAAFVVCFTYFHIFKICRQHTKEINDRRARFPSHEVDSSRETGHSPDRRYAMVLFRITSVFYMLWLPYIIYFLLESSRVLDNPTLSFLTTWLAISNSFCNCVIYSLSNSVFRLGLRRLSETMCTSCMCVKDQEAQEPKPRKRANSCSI

The EC50 is the concentration giving half of the maximal effect. With `Cc1cc(-c2cc(COc3ccc4ccccc4c3)ccn2)ccc1C(N)=O` [Example 42, 4-{4-[(naphthalen-2-yloxy)methyl]pyridin-2-yl}-2-methylbenzamide], the concentration giving a half-maximal response (EC50) lay in the range of 25 to 100 nM.
As for `Cc1cc(-c2cc(COc3ccc(C4CC4)c(F)c3)ccn2)ccc1C(N)=O` [Example 71, 4-[4-(4-cyclopropyl-3-fluorophenoxymethyl)pyridin-2-yl]-2-methylbenzamide], the EC50 was < 25 nM.
Regarding `Cc1cc(-c2cc(COc3cc(F)c(F)c(F)c3)ccn2)ccc1C(N)=O` [Example 57, 4-[4-(3,4,5-trifluorophenoxymethyl)pyridin-2-yl]-2-methyl benzamide], the 50% effective concentration (EC50) is < 25 nM.
As to `CC(=O)c1ccc(OCc2cc(-c3ccc(C(N)=O)c(C)c3)ccn2)cc1` [Example 86, 4-[2-(4-acetylphenoxymethyl)pyridin-4-yl]-2-methylbenzamide hydrochloride], the EC50 was < 25 nM.
Take `Cc1cc(-c2cc(COc3ccc(Cl)c(F)c3)ccn2)ccc1C(N)=O` [Example 34, 4-[4-(4-chloro-3-fluorophenoxymethyl)pyridin-2-yl]-2-methylbenzamide]: the concentration giving a half-maximal response (EC50) was in the range of 101 to 1000 nM.
With `COc1ccc(OCc2cncc(-c3ccc(C(N)=O)c(C)c3)c2)cc1OC` [Example 96, 4-[5-(3,4-dimethoxyphenoxymethyl)pyridin-3-yl]-2-methylbenzamide], the concentration for a half-maximal effect (EC50) is > 1000 nM.
The result for `Cc1ccc(OCc2ccnc(-c3ccc(C(N)=O)c(C)c3)c2)c(Cl)c1` [Example 44, 4-[4-(2-chloro-4-methylphenoxymethyl)pyridin-2-yl]-2-methylbenzamide] reads < 25 nM.
With `CSc1ccc(OCc2ccnc(-c3ccc(C(N)=O)c(C)c3)c2)cc1` [Example 37, 4-{4-[4-(methylsulfanyl)phenoxymethyl]pyridin-2-yl}-2-methyl benzamide], the EC50 lay within 25 to 100 nM.
Then `Cc1ccc(OCc2ccnc(-c3ccc(C(N)=O)c(C)c3)c2)cc1Cl` [Example 18, 4-[4-(3-chloro-4-methylphenoxymethyl)pyridin-2-yl]-2-methylbenzamide], with < 25 nM.
As for `Cc1cc(-c2cc(COc3ccc(C(C)(C)O)cc3)ccn2)ccc1C(N)=O` [Example 69, 4-{4-[4-(2-hydroxypropan-2-yl)phenoxymethyl]pyridin-2-yl}-2-methylbenzamide], the EC50 was in the range of 25 to 100 nM.
With `Cc1ccc(OCc2cncc(-c3ccc(C(N)=O)c(C)c3)c2)cc1F` [Example 89, 4-[5-(3-fluoro-4-methylphenoxymethyl)pyridin-3-yl]-2-methylbenzamide], the concentration for a half-maximal effect (EC50) was in the range of 25 to 100 nM.
The result for `Cc1cc(-c2cc(COc3cccc(C)c3C)ccn2)ccc1C(N)=O` [Example 41, 4-[4-(2,3-dimethylphenoxymethyl)pyridin-2-yl]-2-methylbenzamide] reads 101 to 1000 nM.
For `Cc1cc(-c2cc(COc3ccc(C#N)c(F)c3)ccn2)ccc1C(=O)NCCO` [Example 79, 4-[4-(4-cyano-3-fluorophenoxymethyl)pyridin-2-yl]-N-(2-hydroxyethyl)-2-methylbenzamide], the concentration for a half-maximal effect (EC50) was in the range of 101 to 1000 nM.
In the case of `Cc1cc(-c2cc(COc3ccc(Cl)cc3)ccn2)ccc1C(N)=O` [Example 40, 4-[4-(4-chlorophenoxymethyl)pyridin-2-yl]-2-methylbenzamide], the EC50 is > 1000 nM.
As for `Cc1cc(-c2cc(COc3cncc(C#N)c3)ccn2)ccc1C(N)=O` [Example 75, 4-(4-{[(5-cyanopyridin-3-yl)oxy]methyl}pyridin-2-yl)-2-methylbenzamide], the concentration for a half-maximal effect (EC50) is 101 to 1000 nM.
The result for `Cc1cc(-c2cc(COc3ccc(F)cc3Cl)ccn2)ccc1C(N)=O` [Example 45, 4-[4-(2-chloro-4-fluorophenoxymethyl)pyridin-2-yl]-2-methylbenzamide] reads 101 to 1000 nM; that for `Cc1cc(-c2ccnc(COc3ccc(C(F)(F)F)cc3)c2)ccc1C(N)=O` [Example 81, 4-{2-[4-(trifluoromethyl)phenoxymethyl]pyridin-4-yl}-2-methylbenzamide hydrochloride], < 25 nM.
